Measured values as given in DBAASP.
In brackets after ≈: the same amount, converted by molar mass.

Tests used:
Test in all cases: ≥ marks a high value that may be exact or a test limit, other limits are often not marked, values filed in µg/mL are converted to µM
[1] = test system: Pseudomonas aeruginosa
[2] = test system: Salmonella enterica subsp. enterica serovar Pullorum C79-13
[3] = test system: Pseudomonas aeruginosa PAO1
[4] = test system: Salmonella enterica subsp. enterica serovar Typhimurium ATCC 14028
[5] = test system: Escherichia coli UB1005
[6] = test system: Escherichia coli
[7] = test system: Klebsiella pneumoniae
[8] = test system: Acinetobacter baumannii
[9] = test system: Salmonella enterica subsp. enterica serovar Typhimurium C77-31
[10] = test system: Escherichia coli K88
[11] = test system: Escherichia coli ATCC 25922
[12] = test system: Escherichia coli K99
[13] = test system: Pseudomonas aeruginosa CICC 21630
[14] = test system: Pseudomonas aeruginosa CICC 21625
[15] = test system: Pseudomonas aeruginosa ATCC 27853
[16] = test system: Staphylococcus aureus ATCC 6538P
[17] = test system: Escherichia coli K-12 594
[18] = test system: Staphylococcus aureus SR1550
[19] = test system: Candida albicans CGMCC 2.2086
[20] = test system: Candida parapsilosis CGMCC 2.3989
[21] = test system: Candida albicans
[22] = test system: Candida tropicalis CGMCC 2.1975

MIC [1]	MIC [2]	MIC [3]	MIC [4]	MIC [5]	MIC [6]	MIC [7]	MIC [8]	MIC [9]	MIC [10]	MIC [11]	MIC [12]	MIC [13]	MIC [14]	MIC [15]	MIC [16]	MIC [17]	MIC [18]	Structure (SMILES)	further results
> 64 µM	≥ 64 µM	> 64 µM	64 µM (≈ 175 µg/mL)	16 µM (≈ 43.6 µg/mL)	64 µM (≈ 175 µg/mL)	> 64 µM	16 µM (≈ 43.6 µg/mL)	≥ 64 µM	4 µM (≈ 10.9 µg/mL)	16 µM (≈ 43.6 µg/mL)	8 µM (≈ 21.8 µg/mL)	≥ 64 µM	≥ 64 µM	> 64 µM	–	–	–	CC[C@H](C)[C@H](N)C(=O)N[C@@H](CCCCN)C(=O)N1CCC[C@H]1C(=O)N[C@H](C(=O)N[C@H](C(=O)N[C@@H](CCCCN)C(=O)N1CCC[C@H]1C(=O)N[C@H](C(=O)N[C@H](C(=O)N[C@@H](CCCCN)C(=O)N1CCC[C@H]1C(=O)N[C@H](C(=O)N[C@H](C(=O)N[C@@H](CCCCN)C(=O)N1CCC[C@H]1C(=O)N[C@H](C(=O)N[C@H](C(=O)N[C@@H](CCCCN)C(=O)N1CCC[C@H]1C(=O)N[C@H](C(=O)N[C@H](C(=O)N[C@@H](CCCCN)C(=O)N1CCC[C@H]1C(=O)N[C@H](C(N)=O)[C@@H](C)CC)[C@@H](C)CC)[C@@H](C)CC)[C@@H](C)CC)[C@@H](C)CC)[C@@H](C)CC)[C@@H](C)CC)[C@@H](C)CC)[C@@H](C)CC)[C@@H](C)CC)[C@@H](C)CC [IKPIIKPIIKPIIKPIIKPIIKPI]	–
–	–	–	–	–	–	–	–	–	–	–	–	–	–	–	0.725 µM (≈ 0.999 µg/mL)	14.5 µM (≈ 20 µg/mL)	21.8 µM (≈ 30 µg/mL)	CC(C)C[C@H](NC(=O)[C@H](CCCN=C(N)N)NC(=O)[C@H](CC(C)C)NC(=O)[C@H](CC(C)C)NC(=O)[C@H](CC(C)C)NC(=O)[C@H](CC(C)C)NC(=O)[C@H](CC(C)C)NC(=O)[C@H](CCCCN)NC(=O)[C@H](CC(C)C)NC(=O)[C@@H](N)CCCN=C(N)N)C(=O)N[C@@H](CCCCN)C(N)=O [RLKLLLLLRLK]	–
–	–	–	–	–	–	–	–	–	–	–	–	–	–	–	–	–	–	CC[C@H](C)[C@H](NC(=O)CNC(=O)[C@H](CCCCN)NC(=O)[C@@H](NC(=O)[C@H](CC(C)C)NC(=O)[C@H](CC(C)C)NC(=O)[C@@H](NC(=O)[C@H](CCCCN)NC(=O)CNC(=O)[C@@H](NC(=O)[C@@H](N)CCCCN)[C@@H](C)CC)C(C)C)C(C)C)C(=O)N[C@@H](CCCCN)C(N)=O [KIGKVLLVKGIK]	MIC [19]: ≥ 64 µM; MIC [20]: ≥ 64 µM; MIC [21]: > 64 µM; MIC [22]: ≥ 64 µM
–	–	–	–	–	–	–	–	–	–	–	–	–	–	–	1.74 µM (≈ 2 µg/mL)	26 µM (≈ 30 µg/mL)	30.4 µM (≈ 35 µg/mL)	CC(C)C[C@H](NC(=O)[C@H](CCCN=C(N)N)NC(=O)[C@H](CC(C)C)NC(=O)[C@H](CC(C)C)NC(=O)[C@H](CC(C)C)NC(=O)[C@H](CCCCN)NC(=O)[C@H](CC(C)C)NC(=O)[C@@H](N)CCCN=C(N)N)C(=O)N[C@@H](CCCCN)C(N)=O [RLKLLLRLK]	–
–	–	–	–	–	–	–	–	–	–	–	–	–	–	–	–	–	–	CC[C@H](C)[C@H](NC(=O)[C@@H](N)CCCCN)C(=O)NCC(=O)N[C@@H](CCCCN)C(=O)N[C@H](C(=O)N[C@@H](CC(C)C)C(N)=O)C(C)C [KIGKVL]	MIC [19]: ≥ 64 µM; MIC [20]: ≥ 64 µM; MIC [21]: > 64 µM; MIC [22]: ≥ 64 µM
–	–	–	–	–	–	–	–	–	–	–	–	–	–	–	14.6 µM (≈ 16 µg/mL)	31.9 µM (≈ 35 µg/mL)	31.9 µM (≈ 35 µg/mL)	CC(C)C[C@H](NC(=O)[C@H](CC(C)C)NC(=O)[C@H](CC(C)C)NC(=O)[C@H](CC(C)C)NC(=O)[C@H](CC(C)C)NC(=O)[C@H](CCCCN)NC(=O)[C@@H](N)CCCCN)C(=O)N[C@@H](CCCCN)C(=O)N[C@@H](CCCCN)C(N)=O [KKLLLLLKK]	–
2.83 µM (≈ 9.54 µg/mL)	1 µM (≈ 3.37 µg/mL)	1 µM (≈ 3.37 µg/mL)	1 µM (≈ 3.37 µg/mL)	2 µM (≈ 6.75 µg/mL)	1 µM (≈ 3.37 µg/mL)	2 µM (≈ 6.75 µg/mL)	1 µM (≈ 3.37 µg/mL)	2 µM (≈ 6.75 µg/mL)	1 µM (≈ 3.37 µg/mL)	1 µM (≈ 3.37 µg/mL)	1 µM (≈ 3.37 µg/mL)	2 µM (≈ 6.75 µg/mL)	8 µM (≈ 27 µg/mL)	1 µM (≈ 3.37 µg/mL)	–	–	–	CC(C)C[C@H](NC(=O)[C@@H]1CCCN1C(=O)[C@H](CCCN=C(N)N)NC(=O)[C@H](CC(C)C)NC(=O)[C@H](CC(C)C)NC(=O)[C@@H]1CCCN1C(=O)[C@H](CCCN=C(N)N)NC(=O)[C@H](CC(C)C)NC(=O)[C@H](CC(C)C)NC(=O)[C@@H]1CCCN1C(=O)[C@H](CCCN=C(N)N)NC(=O)[C@H](CC(C)C)NC(=O)[C@H](CC(C)C)NC(=O)[C@@H]1CCCN1C(=O)[C@H](CCCN=C(N)N)NC(=O)[C@H](CC(C)C)NC(=O)[C@H](CC(C)C)NC(=O)[C@@H]1CCCN1C(=O)[C@H](CCCN=C(N)N)NC(=O)[C@H](CC(C)C)NC(=O)[C@H](CC(C)C)NC(=O)[C@@H]1CCCN1C(=O)[C@H](CCCN=C(N)N)NC(=O)[C@H](CC(C)C)NC(=O)[C@H](CC(C)C)NC(=O)[C@@H]1CCCN1C(=O)[C@H](CCCN=C(N)N)NC(=O)[C@@H](N)CC(C)C)C(N)=O [LRPLLRPLLRPLLRPLLRPLLRPLLRPL]	–
> 64 µM	4 µM (≈ 12.7 µg/mL)	> 64 µM	8 µM (≈ 25.4 µg/mL)	8 µM (≈ 25.4 µg/mL)	8 µM (≈ 25.4 µg/mL)	32 µM (≈ 102 µg/mL)	4 µM (≈ 12.7 µg/mL)	16 µM (≈ 50.8 µg/mL)	8 µM (≈ 25.4 µg/mL)	8 µM (≈ 25.4 µg/mL)	16 µM (≈ 50.8 µg/mL)	≥ 64 µM	≥ 64 µM	> 64 µM	–	–	–	CC(C)[C@H](N)C(=O)N[C@@H](CCCN=C(N)N)C(=O)N1CCC[C@H]1C(=O)N[C@H](C(=O)N[C@H](C(=O)N[C@@H](CCCN=C(N)N)C(=O)N1CCC[C@H]1C(=O)N[C@H](C(=O)N[C@H](C(=O)N[C@@H](CCCN=C(N)N)C(=O)N1CCC[C@H]1C(=O)N[C@H](C(=O)N[C@H](C(=O)N[C@@H](CCCN=C(N)N)C(=O)N1CCC[C@H]1C(=O)N[C@H](C(=O)N[C@H](C(=O)N[C@@H](CCCN=C(N)N)C(=O)N1CCC[C@H]1C(=O)N[C@H](C(=O)N[C@H](C(=O)N[C@@H](CCCN=C(N)N)C(=O)N1CCC[C@H]1C(=O)N[C@H](C(=O)N[C@H](C(=O)N[C@@H](CCCN=C(N)N)C(=O)N1CCC[C@H]1C(=O)N[C@H](C(N)=O)C(C)C)C(C)C)C(C)C)C(C)C)C(C)C)C(C)C)C(C)C)C(C)C)C(C)C)C(C)C)C(C)C)C(C)C)C(C)C [VRPVVRPVVRPVVRPVVRPVVRPVVRPV]	–
